The text below walks through data of PubChem BioAssay AID330 (DTP/NCI, 2004).

The test system of the assay is P388 leukemia ip, CD2F1 mice, survival T/C. The assay is described as follows: NCI In Vivo Anticancer Drug Screen. Data for tumor model P388 Leukemia (intraperitoneal) in CD2F1 (CDF1) mice. The conditions noted are these: endpoint: median survival time, higher = longer survival. The gist of the method:
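Mice carrying the transplanted tumor received test compound or vehicle. Survival was recorded in each group, and the value is the treated-group measurement divided by that of the vehicle-treated control group.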

Setting [1] is: dose: 50.0 mg/kg/injection, schedule: Q01DX005 (ip), vehicle: saline with Tween-80.
Where [2] appears, read: dose: 100.0 mg/kg/injection, schedule: Q01DX005 (ip), vehicle: saline with Tween-80.
[3] abbreviates: dose: 200.0 mg/kg/injection, schedule: Q01DX005 (ip), vehicle: saline with Tween-80.
Setting [4] is: dose: 400.0 mg/kg/injection, schedule: Q01DX005 (ip), vehicle: saline with Tween-80.
[5] abbreviates: dose: 100.0 mg/kg/injection, schedule: Q01DX001 (ip), vehicle: saline.
Where [6] appears, read: dose: 200.0 mg/kg/injection, schedule: Q01DX001 (ip), vehicle: saline.
[7] abbreviates: dose: 400.0 mg/kg/injection, schedule: Q01DX001 (ip), vehicle: saline.
Where [8] appears, read: dose: 50.0 mg/kg/injection, schedule: Q01DX009 (ip), vehicle: saline with Tween-80.
[9] abbreviates: dose: 100.0 mg/kg/injection, schedule: Q01DX009 (ip), vehicle: saline with Tween-80.
[10] abbreviates: dose: 200.0 mg/kg/injection, schedule: Q01DX009 (ip), vehicle: saline with Tween-80.
The mark [11] stands for this setting: dose: 25.0 mg/kg/injection, schedule: Q01DX001 (ip), vehicle: saline with Tween-80.
Setting [12] is: dose: 50.0 mg/kg/injection, schedule: Q01DX001 (ip), vehicle: saline with Tween-80.
Where [13] appears, read: dose: 100.0 mg/kg/injection, schedule: Q01DX001 (ip), vehicle: saline with Tween-80.

Where “and” joins values, the source holds several entries; their conditions need not be identical. Equal values may be shown once. Inconclusive results and toxic doses are left out.

With `CCOC(=O)C(Cc1ccc(N(CCCl)CCCl)cc1)NC(=O)C(Cc1ccc(N)cc1)NC(C)=O` (configuration not stated), the T/C (dose: 3.12 mg/kg/injection, schedule: Q01DX005 (ip), vehicle: saline with Tween-80) is 123 % of control; the T/C (dose: 6.25 mg/kg/injection, schedule: Q01DX005 (ip), vehicle: saline with Tween-80) was 159 % of control; the T/C (dose: 12.5 mg/kg/injection, schedule: Q01DX005 (ip), vehicle: saline with Tween-80) was 207 % of control; the T/C (dose: 25.0 mg/kg/injection, schedule: Q01DX005 (ip), vehicle: saline with Tween-80) was 298 % of control; the T/C under setting [1] was 104 % of control and 115 % of control and 117 % of control; the T/C under setting [2] was 114 % of control and 120 % of control. For the same compound, the T/C reads like this: under setting [3], 122 % of control; under setting [4], 115 % of control.

Turning to `CC12NCCC(CC(=O)N1)C2(C)C` (configuration not stated), the T/C (dose: 60.0 mg/kg/injection, schedule: Q01DX005 (ip), vehicle: saline) is 103 % of control; the T/C (dose: 120.0 mg/kg/injection, schedule: Q01DX005 (ip), vehicle: saline) is 110 % of control; the T/C (dose: 240.0 mg/kg/injection, schedule: Q01DX005 (ip), vehicle: saline) is 106 % of control.

For the compound `C1=C(B2OCCNO2)CCCC1`, the T/C by setting is: under setting [5], 101 % of control; under setting [6], 96 % of control; under setting [7], 104 % of control.

On to `CO/N=C/c1ccc[n+](C)c1`, for which the T/C reads like this: under setting [1], 105 % of control; under setting [2], 105 % of control.

On to `O=C(O)CC(O)CCO` (configuration not stated), for which the T/C was 104 % of control under setting [5], 103 % of control under setting [6] and 101 % of control under setting [7].

On to `Oc1ccc(/C=N/Nc2nnc(N/N=C/c3ccc(O)cc3O)c3ccccc23)c(O)c1`, for which the T/C is 106 % of control (dose: 3.12 mg/kg/injection, schedule: Q01DX009 (ip), vehicle: saline); 116 % of control (dose: 3.12 mg/kg/injection, schedule: Q01DX009 (ip), vehicle: suspension in saline); 112 % of control (dose: 6.25 mg/kg/injection, schedule: Q01DX009 (ip), vehicle: saline); 117 % of control (dose: 12.5 mg/kg/injection, schedule: Q01DX009 (ip), vehicle: saline).

For the compound `COc1ccc(/C=C/c2ccc3ccccc3[n+]2C)cc1Br`, the T/C is 113 % of control (dose: 12.5 mg/kg/injection, schedule: Q01DX005 (ip), vehicle: Klucel (hydroxypropylcellulose) (HPC)); 113 % of control (dose: 25.0 mg/kg/injection, schedule: Q01DX005 (ip), vehicle: Klucel (hydroxypropylcellulose) (HPC)); 113 % of control and 119 % of control (dose: 50.0 mg/kg/injection, schedule: Q01DX005 (ip), vehicle: Klucel (hydroxypropylcellulose) (HPC)).

As to `CNC1=CC(=O)c2c(c3cc(OC(C)=O)ccc3n2C)C1=O`, the T/C (dose: 50.0 mg/kg/injection, schedule: Q01DX009 (ip), vehicle: saline) was 99 % of control; the T/C (dose: 100.0 mg/kg/injection, schedule: Q01DX009 (ip), vehicle: saline) is 99 % of control; the T/C (dose: 200.0 mg/kg/injection, schedule: Q01DX009 (ip), vehicle: saline) is 100 % of control.

Take `CC(C)Nc1nc(N)nc(N)n1`: the T/C by setting is: under setting [8], 100 % of control; under setting [9], 91 % of control; under setting [10], 96 % of control.

`C/C(=N\N=C(/[Se])N1CC2CCC(CC2)C1)c1ccccn1`: the T/C was 100 % of control (dose: 1.56 mg/kg/injection, schedule: Q01DX009 (ip), vehicle: Klucel (hydroxypropylcellulose) (HPC)); 124 % of control (dose: 3.12 mg/kg/injection, schedule: Q01DX009 (ip), vehicle: Klucel (hydroxypropylcellulose) (HPC)); 98 % of control and 97 % of control (dose: 12.5 mg/kg/injection, schedule: Q01DX009 (ip), vehicle: Klucel (hydroxypropylcellulose) (HPC)).

Regarding `CC(C)N[P+](c1ccccc1)(c1ccccc1)c1ccccc1`, the T/C (dose: 25.0 mg/kg/injection, schedule: Q04DX003 (ip), vehicle: saline) is 96 % of control.

As for `O=NN(CCCl)C(=O)OCC(Cl)(Cl)Cl`, the T/C runs as follows: (dose: 3.12 mg/kg/injection, schedule: Q01DX001 (ip), vehicle: saline with Tween-80) 104 % of control; (dose: 6.25 mg/kg/injection, schedule: Q01DX001 (ip), vehicle: saline with Tween-80) 101 % of control; (dose: 12.5 mg/kg/injection, schedule: Q01DX001 (ip), vehicle: saline with Tween-80) 113 % of control; under setting [11], 113 % of control and 117 % of control and 119 % of control; under setting [12], 105 % of control and 120 % of control and 123 % of control; under setting [13], 88 % of control.

In the case of `Nc1ccc(-c2c[nH]c(=O)c([N+](=O)[O-])c2)cc1`, the T/C is, setting by setting: under setting [8], 99 % of control; under setting [9], 99 % of control; under setting [10], 100 % of control.

In the case of `COC(=O)C1C(C)(C)N=[N+]([O-])C1(C)C` (configuration not stated), the T/C (dose: 12.5 mg/kg/injection, schedule: Q01DX009 (ip), vehicle: water) was 102 % of control; the T/C (dose: 25.0 mg/kg/injection, schedule: Q01DX009 (ip), vehicle: water) is 107 % of control; the T/C (dose: 50.0 mg/kg/injection, schedule: Q01DX009 (ip), vehicle: water) is 99 % of control; the T/C (dose: 100.0 mg/kg/injection, schedule: Q01DX009 (ip), vehicle: water) is 97 % of control; the T/C (dose: 200.0 mg/kg/injection, schedule: Q01DX009 (ip), vehicle: water) is 99 % of control.

Regarding `CC1C(O)C2(Oc3cc4c(c5c3[C@@H](CC5O)[C@H]2C)CCC2Cc3nc5c(nc3C[C@@]42C)CC2CCC3C4=C[C@H]6O[C@@]7(O[C@@](C)(CO)C[C@@H]7O)C(C)[C@@]6(O)[C@]4(C)[C@@H](O)CC3[C@]2(C)C5)OC1(C)C` (some centres not stated), the T/C was 107 % of control (dose: 12.5 micrograms/kg/injection, schedule: Q01DX009 (ip), vehicle: saline + alcohol); 100 % of control (dose: 25.0 micrograms/kg/injection, schedule: Q01DX009 (ip), vehicle: saline + alcohol); 107 % of control (dose: 50.0 micrograms/kg/injection, schedule: Q01DX009 (ip), vehicle: saline + alcohol); 109 % of control (dose: 100.0 micrograms/kg/injection, schedule: Q01DX009 (ip), vehicle: saline + alcohol).

On to `CCNSc1ccccc1`, for which the T/C (dose: 50.0 mg/kg/injection, schedule: Q01DX009 (ip), vehicle: Klucel (hydroxypropylcellulose) (HPC)) is 106 % of control.

In the case of `Cn1nc(C(N)=O)c2c(N)ncnc21`, the T/C (dose: 0.94 mg/kg/injection, schedule: Q01DX005 (ip), vehicle: saline with Tween-80) is 105 % of control; the T/C (dose: 1.88 mg/kg/injection, schedule: Q01DX005 (ip), vehicle: saline with Tween-80) is 92 % of control; the T/C (dose: 3.75 mg/kg/injection, schedule: Q01DX005 (ip), vehicle: saline with Tween-80) is 104 % of control; the T/C (dose: 7.5 mg/kg/injection, schedule: Q01DX005 (ip), vehicle: saline with Tween-80) is 91 % of control.

Turning to `Nc1nsc(Cl)n1`, the T/C by setting is: under setting [11], 97 % of control; under setting [12], 106 % of control; under setting [13], 99 % of control.

In the case of `CCCCCN(CCCCC)CCCCCCCCN1CCCc2ccccc21`, the T/C under setting [1] is 106 % of control, the T/C under setting [2] is 108 % of control and the T/C under setting [3] was 117 % of control.

As for `CC(Cl)S(N)(=O)=O` (configuration not stated), the T/C (dose: 50.0 mg/kg/injection, schedule: Q01DX005 (ip), vehicle: saline) was 105 % of control; the T/C (dose: 100.0 mg/kg/injection, schedule: Q01DX005 (ip), vehicle: saline) is 98 % of control; the T/C (dose: 200.0 mg/kg/injection, schedule: Q01DX005 (ip), vehicle: saline) was 105 % of control.

For the compound `O=C(O)C(O)C(O)C1[O][Sb][O]C1C(=O)O` (configuration not stated), the T/C runs as follows: (dose: 12.5 mg/kg/injection, schedule: Q01DX005 (ip), vehicle: saline) 110 % of control; under setting [1], 100 % of control and 101 % of control and 94 % of control; under setting [2], 100 % of control and 108 % of control and 109 % of control; under setting [3], 111 % of control and 117 % of control; under setting [4], 118 % of control and 120 % of control.

For `CC[C@@H]1C[C@@H]2CN3CCc4c([nH]c5ccc(OC)c(Cc6ccc(OC)c(OC)c6)c45)C(C(=O)OC)(C2)C13`, the T/C was 88 % of control (dose: 2.5 mg/kg/injection, schedule: Q01DX009 (ip), vehicle: Klucel (hydroxypropylcellulose) (HPC)); 103 % of control (dose: 5.0 mg/kg/injection, schedule: Q01DX009 (ip), vehicle: Klucel (hydroxypropylcellulose) (HPC)); 92 % of control (dose: 10.0 mg/kg/injection, schedule: Q01DX009 (ip), vehicle: Klucel (hydroxypropylcellulose) (HPC)); 95 % of control (dose: 20.0 mg/kg/injection, schedule: Q01DX009 (ip), vehicle: Klucel (hydroxypropylcellulose) (HPC)).
